In US5292734A, “Angiotensin II receptor blocking 2,3,6 substituted quinazolinones” (American Cyanamid Company, priority 1993, dated 1994):
“And” between values parts separate entries of the source, which are not always exact repeats. Identical values can stand only once.

Test system: Angiotensin II (AII) vasopressor response
Test: AII challenge: vasopressor response of angiotensin II in conscious SHR
Assay type: in vivo, rat (Conscious Male Okamoto-Aoki SHR)
Settings: for % Inhibition / Average Change: SHR n = 2; for Response After AII / Change / Control Before AII: single rat, SHR
From the text: By administering a compound of this invention to a rat, and then challenging with angiotensin II, a blockage of the vasopressor response is realized.
Conscious Male Okamoto-Aoki SHR, 16-20 weeks old, weighing approximately 330 g are purchased from Charles River Labs (Wilmington, Mass.). Conscious rats are restrained in a supine position with elastic tape. The area at the base of the tail is locally anesthetized by subcutaneous infiltration with 2% procaine. The ventral caudal artery and vein are isolated, and a cannula made of polyethylene (PE) 10-20 tubing (fused together by heat) is passed into the lower abdominal aorta and vena cava, respectively. The cannula is secured, heparinized (1,000 I.U./ml), sealed and the wound is closed. The animals are placed in plastic restraining cages in an upright position. The cannula is attached to a Statham P23Db pressure transducer, and pulsatile blood pressure is recorded to 10-15 minutes with a Gould Brush recorder. (Chan et al., (Drug Development Res., 18:75-94, 1989).
Angiotensin II (human sequence, Sigma Chem. Co., St. Louis, Mo.) of 0.05 and 0.1 ug/kg i.v. is injected into all rats (predosing response). Then a test compound, vehicle or a known angiotensin II antagonist is administered i.v., i.p. or orally to each set of rats. The two doses of angiotensin II are given to each rat again at 30, 60, 90, 120, 180, 240 and 300 minutes post dosing the compound or vehicle. The vasopressor response of angiotensin II is measured for the increase in systolic blood pressure in mmhg. The percentage of antagonism or blockade of the vasopressor response of angiotensin II by a compound is calculated using the vasopressor response (increase in systolic blood pressure) of angiotensin II of each rat predosing the compound as 100%. A compound is considered active if at 30 mg/kg i.v. it antagonized at least 50% of the response.

[1] = 1 mg/kg I.V., AII 0.05 mcg/kg IV, 30 min post dose
[2] = 1 mg/kg I.V., AII 0.05 mcg/kg IV, 60 min post dose
[3] = 1 mg/kg I.V., AII 0.05 mcg/kg IV, 90 min post dose
[4] = 1 mg/kg I.V., AII 0.05 mcg/kg IV, 120 min post dose
[5] = 1 mg/kg I.V., AII 0.05 mcg/kg IV, 180 min post dose
[6] = 1 mg/kg I.V., AII 0.05 mcg/kg IV, 240 min post dose
[7] = 1 mg/kg I.V., AII 0.1 mcg/kg IV, 30 min post dose
[8] = 1 mg/kg I.V., AII 0.1 mcg/kg IV, 60 min post dose
[9] = 1 mg/kg I.V., AII 0.1 mcg/kg IV, 90 min post dose
[10] = 1 mg/kg I.V., AII 0.1 mcg/kg IV, 120 min post dose
[11] = 1 mg/kg I.V., AII 0.1 mcg/kg IV, 180 min post dose
[12] = 1 mg/kg I.V., AII 0.1 mcg/kg IV, 240 min post dose
[13] = 2 mg/kg P.O., AII 0.05 mcg/kg IV, 30 min post dose
[14] = 2 mg/kg P.O., AII 0.05 mcg/kg IV, 60 min post dose
[15] = 2 mg/kg P.O., AII 0.05 mcg/kg IV, 90 min post dose
[16] = 2 mg/kg P.O., AII 0.05 mcg/kg IV, 120 min post dose
[17] = 2 mg/kg P.O., AII 0.05 mcg/kg IV, 180 min post dose
[18] = 2 mg/kg P.O., AII 0.1 mcg/kg IV, 30 min post dose
[19] = 2 mg/kg P.O., AII 0.1 mcg/kg IV, 60 min post dose
[20] = 2 mg/kg P.O., AII 0.1 mcg/kg IV, 90 min post dose
[21] = 2 mg/kg P.O., AII 0.1 mcg/kg IV, 120 min post dose
[22] = 2 mg/kg P.O., AII 0.1 mcg/kg IV, 180 min post dose
[23] = 1 mg/kg I.V., AII 0.05 mcg/kg IV, 30 min post dose, 1 mg/kg
[24] = 1 mg/kg I.V., AII 0.05 mcg/kg IV, 60 min post dose, 1 mg/kg
[25] = 1 mg/kg I.V., AII 0.05 mcg/kg IV, 90 min post dose, 1 mg/kg
[26] = 1 mg/kg I.V., AII 0.05 mcg/kg IV, 180 min post dose, 1 mg/kg
[27] = 1 mg/kg I.V., AII 0.05 mcg/kg IV, 240 min post dose, 1 mg/kg
[28] = 1 mg/kg I.V., AII 0.1 mcg/kg IV, 30 min post dose, 1 mg/kg
[29] = 1 mg/kg I.V., AII 0.1 mcg/kg IV, 60 min post dose, 1 mg/kg
[30] = 1 mg/kg I.V., AII 0.1 mcg/kg IV, 90 min post dose, 1 mg/kg
[31] = 1 mg/kg I.V., AII 0.1 mcg/kg IV, 120 min post dose, 1 mg/kg
[32] = 1 mg/kg I.V., AII 0.1 mcg/kg IV, 180 min post dose, 1 mg/kg
[33] = 1 mg/kg I.V., AII 0.1 mcg/kg IV, 240 min post dose, 1 mg/kg
[34] = 2 mg/kg P.O., AII 0.05 mcg/kg IV, 30 min post dose, 2 mg/kg
[35] = 2 mg/kg P.O., AII 0.05 mcg/kg IV, 90 min post dose, 2 mg/kg
[36] = 2 mg/kg P.O., AII 0.05 mcg/kg IV, 120 min post dose, 2 mg/kg
[37] = 2 mg/kg P.O., AII 0.05 mcg/kg IV, 180 min post dose, 2 mg/kg
[38] = 2 mg/kg P.O., AII 0.1 mcg/kg IV, 60 min post dose, 2 mg/kg
[39] = 2 mg/kg P.O., AII 0.1 mcg/kg IV, 120 min post dose, 2 mg/kg
[40] = 2 mg/kg P.O., AII 0.1 mcg/kg IV, 180 min post dose, 2 mg/kg

Compound: CCCCc1nc2ccc(C(C)(O)CC3CCCN3)cc2c(=O)n1Cc1ccc(-c2ccccc2-c2nnn[nH]2)cc1 (stereo not drawn) [Example 79, CIS-2-Butyl-6-[1-hydroxy-1-methyl-2-(2-pyrrolidinyl)ethyl]-3-[[21-(1H-tetrazol-5-yl)[1,1'-biphenyl]-4-yl]methyl]-4(3H)-quinazolinone]
- % Inhibition [1]: 93%
- Average Change [1]: 2.5 mmhg
- % Inhibition [2]: 67%
- Average Change [2]: 12.5 mmhg
- % Inhibition [3]: 53%
- Average Change [3]: 17.5 mmhg
- % Inhibition [4]: 47%
- Average Change [4]: 20 mmhg
- % Inhibition [5]: 53%
- Average Change [5]: 17.5 mmhg
- % Inhibition [6]: 20%
- Average Change [6]: 30 mmhg
- % Inhibition [7]: 76%
- Average Change [7]: 11 mmhg
- % Inhibition [8]: 62%
- Average Change [8]: 17 mmhg
- % Inhibition [9]: 56%
- Average Change [9]: 20 mmhg
- % Inhibition [10]: 39%
- Average Change [10]: 27.5 mmhg
- % Inhibition [11]: 50%
- Average Change [11]: 22.5 mmhg
- % Inhibition [12]: 24%
- Average Change [12]: 34 mmhg
- % Inhibition [13]: 0%
- Average Change [13]: 27.5 mmhg
- % Inhibition [14]: -9%
- Average Change [14]: 30 mmhg
- % Inhibition [15]: 13%
- Average Change [15]: 24 mmhg
- % Inhibition [16]: 15%
- Average Change [16]: 23.5 mmhg
- % Inhibition [17]: 5%
- Average Change [17]: 26 mmhg
- % Inhibition [18]: -9%
- Average Change [18]: 30 mmhg
- % Inhibition [19]: -36%
- Average Change [19]: 37.5 mmhg
- % Inhibition [20]: -55%
- Average Change [20]: 42.5 mmhg
- % Inhibition [21]: -11%
- Average Change [21]: 30.5 mmhg
- % Inhibition [22]: -40%
- Average Change [22]: 38.5 mmhg
- Response After AII [1]: 200 mmhg
- Change [23]: 0 mmhg and 5 mmhg
- Response After AII [23]: 205 mmhg
- Response After AII [2]: 220 mmhg
- Change [24]: 15 mmhg and 10 mmhg
- Response After AII [24]: 205 mmhg
- Response After AII [3]: 220 mmhg
- Change [25]: 15 mmhg and 20 mmhg
- Response After AII [25]: 215 mmhg
- Change [4]: 20 mmhg
- Response After AII [4]: 215 mmhg
- Response After AII [5]: 220 mmhg
- Change [26]: 15 mmhg and 20 mmhg
- Response After AII [26]: 215 mmhg
- Change [27]: 25 mmhg and 35 mmhg
- Response After AII [27]: 220 mmhg and 235 mmhg
- Response After AII [7]: 202 mmhg
- Change [28]: 15 mmhg and 7 mmhg
- Response After AII [28]: 205 mmhg
- Change [29]: 19 mmhg and 15 mmhg
- Response After AII [29]: 214 mmhg and 210 mmhg
- Response After AII [9]: 220 mmhg
- Change [30]: 25 mmhg and 15 mmhg
- Response After AII [30]: 215 mmhg
- Change [31]: 30 mmhg and 25 mmhg
- Response After AII [31]: 230 mmhg and 220 mmhg
- Response After AII [11]: 220 mmhg
- Change [32]: 30 mmhg and 15 mmhg
- Response After AII [32]: 225 mmhg
- Change [33]: 33 mmhg and 35 mmhg
- Response After AII [33]: 238 mmhg and 240 mmhg
- Control Before AII (1 mg/kg I.V., before AII 0.05 mcg/kg IV, 30 min post dose): 200 mmhg
- Control Before AII (1 mg/kg I.V., before AII 0.05 mcg/kg IV, 60 min post dose, 1 mg/kg): 205 mmhg and 195 mmhg
- Control Before AII (1 mg/kg I.V., before AII 0.05 mcg/kg IV, 90 min post dose): 200 mmhg
- Control Before AII (1 mg/kg I.V., before AII 0.05 mcg/kg IV, 120 min post dose): 195 mmhg
- Control Before AII (1 mg/kg I.V., before AII 0.05 mcg/kg IV, 180 min post dose, 1 mg/kg): 205 mmhg and 195 mmhg
- Control Before AII (1 mg/kg I.V., before AII 0.05 mcg/kg IV, 240 min post dose, 1 mg/kg): 195 mmhg and 200 mmhg
- Control Before AII (1 mg/kg I.V., before AII 0.1 mcg/kg IV, 30 min post dose, 1 mg/kg): 190 mmhg and 195 mmhg
- Control Before AII (1 mg/kg I.V., before AII 0.1 mcg/kg IV, 60 min post dose): 195 mmhg
- Control Before AII (1 mg/kg I.V., before AII 0.1 mcg/kg IV, 90 min post dose, 1 mg/kg): 195 mmhg and 200 mmhg
- Control Before AII (1 mg/kg I.V., before AII 0.1 mcg/kg IV, 120 min post dose, 1 mg/kg): 200 mmhg and 195 mmhg
- Control Before AII (1 mg/kg I.V., before AII 0.1 mcg/kg IV, 180 min post dose, 1 mg/kg): 195 mmhg and 205 mmhg
- Control Before AII (1 mg/kg I.V., before AII 0.1 mcg/kg IV, 240 min post dose): 205 mmhg
- Change [34]: 30 mmhg and 25 mmhg
- Response After AII [34]: 260 mmhg and 275 mmhg
- Change [14]: 30 mmhg
- Response After AII (2 mg/kg P.O., AII 0.05 mcg/kg IV, 60 min post dose, 2 mg/kg): 265 mmhg and 270 mmhg
- Change [35]: 20 mmhg and 28 mmhg
- Response After AII [35]: 245 mmhg and 258 mmhg
- Change [36]: 17 mmhg and 30 mmhg
- Response After AII [36]: 242 mmhg and 265 mmhg
- Change [37]: 17 mmhg and 35 mmhg
- Response After AII [37]: 252 mmhg and 275 mmhg
- Change [18]: 30 mmhg
- Response After AII (2 mg/kg P.O., AII 0.1 mcg/kg IV, 30 min post dose, 2 mg/kg): 265 mmhg and 275 mmhg
- Change [38]: 35 mmhg and 40 mmhg
- Response After AII [38]: 260 mmhg and 280 mmhg
- Response After AII [20]: 270 mmhg
- Change (2 mg/kg P.O., AII 0.1 mcg/kg IV, 90 min post dose, 2 mg/kg): 45 mmhg and 40 mmhg
- Change [39]: 31 mmhg and 30 mmhg
- Response After AII [39]: 255 mmhg and 270 mmhg
- Change [40]: 32 mmhg and 45 mmhg
- Response After AII [40]: 262 mmhg and 280 mmhg
- Control Before AII (2 mg/kg P.O., before AII 0.05 mcg/kg IV, 30 min post dose): 250 mmhg
- Control Before AII (2 mg/kg P.O., before AII 0.05 mcg/kg IV, 30 min post dose, 2 mg/kg): 230 mmhg
- Control Before AII (2 mg/kg P.O., before AII 0.05 mcg/kg IV, 60 min post dose): 240 mmhg
- Control Before AII (2 mg/kg P.O., before AII 0.05 mcg/kg IV, 60 min post dose, 2 mg/kg): 235 mmhg
- Control Before AII (2 mg/kg P.O., before AII 0.05 mcg/kg IV, 90 min post dose, 2 mg/kg): 225 mmhg and 230 mmhg
- Control Before AII (2 mg/kg P.O., before AII 0.05 mcg/kg IV, 120 min post dose, 2 mg/kg): 225 mmhg and 235 mmhg
- Control Before AII (2 mg/kg P.O., before AII 0.05 mcg/kg IV, 180 min post dose): 240 mmhg
- Control Before AII (2 mg/kg P.O., before AII 0.05 mcg/kg IV, 180 min post dose, 2 mg/kg): 235 mmhg
- Control Before AII (2 mg/kg P.O., before AII 0.1 mcg/kg IV, 30 min post dose, 2 mg/kg): 235 mmhg and 245 mmhg
- Control Before AII (2 mg/kg P.O., before AII 0.1 mcg/kg IV, 60 min post dose): 240 mmhg
- Control Before AII (2 mg/kg P.O., before AII 0.1 mcg/kg IV, 60 min post dose, 2 mg/kg): 225 mmhg
- Control Before AII (2 mg/kg P.O., before AII 0.1 mcg/kg IV, 90 min post dose, 2 mg/kg): 225 mmhg and 230 mmhg
- Control Before AII (2 mg/kg P.O., before AII 0.1 mcg/kg IV, 120 min post dose): 240 mmhg
- Control Before AII (2 mg/kg P.O., before AII 0.1 mcg/kg IV, 120 min post dose, 2 mg/kg): 224 mmhg
- Control Before AII (2 mg/kg P.O., before AII 0.1 mcg/kg IV, 180 min post dose, 2 mg/kg): 230 mmhg and 235 mmhg
